In US11629171B2, “Beta-hairpin peptidomimetics” (POLYPHOR AG, priority 2017, dated 2023):
Converted amounts (≈) assume the structure as drawn. Where a SMILES comes first, the peptide text is derived from it. Bridges are numbered along the chain shown (N, C = ends). Roman numbers before positions name the chains, in order. [ ]: non-standard residue; d: D form. Thr(ol) = C[C@@H](O)[C@H](N)CO; Tle = CC(C)(C)[C@H](N)C(=O)O; Hiv = CC(C)[C@H](O)C(=O)O; dDab = NCC[C@@H](N)C(=O)O; hSer = N[C@@H](CCO)C(=O)O; Orn = NCCC[C@H](N)C(=O)O; Dab = NCC[C@H](N)C(=O)O; Dap = NC[C@H](N)C(=O)O; Mpa = O=C(O)CCS

Assays:
Format in all cases: cell-based
[1] = test system: Klebsiella pneumoniae 968733; details: 968733
Procedure, shortened: (§1)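 CLSI broth microdilution in cation-adjusted Mueller-Hinton II broth with 0.002% polysorbate 80 (final), inoculum appr. 10^6 CFU/mL, peptides in serial two-fold dilutions. MIC (μg/mL) is the lowest concentration without visible growth after 18-20 h at 35° C.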

[2] = test system: Escherichia coli 926415; details: 926415
Procedure, shortened: as §1

[3] = test system: Klebsiella pneumoniae SSI #3010; details: SSI #3010
Procedure, shortened: as §1

[4] = test system: Acinetobacter baumannii 872842; details: 872842
Procedure, shortened: as §1

[5] = test system: Enterobacter cloacae 848840; details: 848840
Procedure, shortened: as §1

[6] = test system: Escherichia coli ATCC 25922; details: ATCC 25922
Procedure, shortened: as §1

[7] = test system: Pseudomonas aeruginosa ATCC 27853; details: ATCC 27853
Procedure, shortened: as §1

[8] = test system: Acinetobacter baumannii DSM 30008; details: DSM 30008
Procedure, shortened: as §1

[9] = test system: human red blood cells (hRBC); experiment: Hemolysis; details: red cells of human, 1 h, 200
Procedure, shortened: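 Washed fresh human RBC (20% v/v) incubated with peptide at 200 μg/mL for 1 h at 37° C with shaking. Supernatant OD540 measured after dilution, blank corrected; percent hemolysis = OD540 peptide / OD540 of 2% Triton X-100 lysis × 100, PBS with 10% water as 0%.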

SMILES | MIC [1] | MIC [2] | MIC [3] | MIC [4] | MIC [5] | MIC [6] | MIC [7] | MIC [8] | Hemolysis at 200 μg/mL [9] | Klebsiella pneumoniae SSI #3010 MIC [3] | Escherichia coli ATCC 25922 MIC [6] | Pseudomonas aeruginosa ATCC 27853 MIC [7] | Acinetobacter baumannii DSM 30008 MIC [8]
CC(C)C[C@@H]1NC(=O)[C@@H](CC(C)C)NC(=O)[C@H](CCN)NC(=O)[C@@H](NC(=O)[C@H](CN)NC(=O)[C@@H](NC(=O)[C@H](CCN)NC(=O)CC[C@@H]2NC(=O)[C@H](CO)NC(=O)[C@H](Cc3ccc(O)cc3)NC(=O)[C@H]([C@@H](C)O)NC(=O)[C@H](C(C)C)NC(=O)CCSSC[C@@H](C(N)=O)NC(=O)[C@H]([C@@H](C)O)NC(=O)[C@H](C)NC(=O)[C@H](C(C)(C)C)NC(=O)[C@H](CCC(=O)O)NC(=O)[C@H](Cc3c[nH]c4ccccc34)NC(=O)[C@H](CCN)NC(=O)[C@@H](CCN)NC2=O)[C@@H](C)O)CCNC(=O)[C@H]([C@@H](C)O)NC(=O)[C@H](CCN)NC(=O)[C@H](CCN)NC1=O [Ex. 250] (I: [Mpa]VTYSE[dDab][Dab]WE[Tle]ATC-NH2 / II: [Dab]T[Dap][Dab][Dab][dL]L[Dab][Dab]T; disulfide I:1-I:14; amide I:6-II:N; lactam II:4-II:C) | 0.125 µg/mL (≈ 0.0484 µM) | 0.0625 µg/mL (≈ 0.0242 µM) | 0.0625 µg/mL (≈ 0.0242 µM) | 0.03125 µg/mL (≈ 0.0121 µM) | 0.0625 µg/mL (≈ 0.0242 µM) | 0.03125 µg/mL (≈ 0.0121 µM) | 0.125 µg/mL (≈ 0.0484 µM) | 0.03125 µg/mL (≈ 0.0121 µM) | 1% |  |  |  | 
CC(C)C[C@@H]1NC(=O)[C@@H](CC(C)C)NC(=O)[C@H](CCN)NC(=O)[C@@H](NC(=O)[C@H](CN)NC(=O)[C@@H](NC(=O)[C@H](CCN)NC(=O)CC[C@@H]2NC(=O)[C@H](CN)NC(=O)[C@H](Cc3ccc(O)cc3)NC(=O)[C@@H](NC(=O)[C@@H](O)C(C)C)CSSC[C@@H](C(=O)N[C@H](CO)[C@@H](C)O)NC(=O)[C@H](C(C)(C)C)NC(=O)[C@H](CO)NC(=O)[C@H](Cc3c[nH]c4ccccc34)NC(=O)[C@H](CCO)NC(=O)[C@@H](CCN)NC2=O)[C@@H](C)O)CCNC(=O)[C@H]([C@@H](C)O)NC(=O)[C@H](CCN)NC(=O)[C@H](CCN)NC1=O [Ex. 112] (I: H-[Hiv]CY[Dap]E[dDab][hSer]WS[Tle]C[Thr(ol)] / II: [Dab]T[Dap][Dab][Dab][dL]L[Dab][Dab]T; disulfide I:2-I:11; amide I:5-II:N; lactam II:4-II:C) | 0.125 µg/mL (≈ 0.0527 µM) | 0.0625 µg/mL (≈ 0.0263 µM) | 0.0625 µg/mL (≈ 0.0263 µM) | 0.0625 µg/mL (≈ 0.0263 µM) | 0.125 µg/mL (≈ 0.0527 µM) | 0.0625 µg/mL (≈ 0.0263 µM) | 0.125 µg/mL (≈ 0.0527 µM) | 0.0625 µg/mL (≈ 0.0263 µM) | <1% |  |  |  | 
CC(=O)N[C@@H](Cc1ccccc1)C(=O)N[C@H]1CCCNC(=O)[C@@H]([C@H](C)O)NC(=O)[C@H](C(C)(C)C)NC(=O)[C@H](CO)NC(=O)[C@H](Cc2c[nH]c3ccccc23)NC(=O)[C@H](CCO)NC(=O)[C@@H](CCN)NC(=O)[C@H](CCC(=O)N[C@@H](CCN)C(=O)N[C@H](C(=O)N[C@@H](CN)C(=O)N[C@H]2CCNC(=O)[C@H]([C@@H](C)O)NC(=O)[C@H](CCN)NC(=O)[C@H](CCN)NC(=O)[C@H](CC(C)C)NC(=O)[C@@H](CC(C)C)NC(=O)[C@H](CCN)NC2=O)[C@@H](C)O)NC(=O)[C@H](CN)NC(=O)[C@H](Cc2ccc(O)cc2)NC1=O [Ex. 36] (I: Ac-F[Orn]Y[Dap]E[dDab][hSer]WS[Tle][dT] / II: [Dab]T[Dap][Dab][Dab][dL]L[Dab][Dab]T; lactam I:2-I:C, II:4-II:C; amide I:5-II:N) | 0.25 µg/mL (≈ 0.106 µM) | 0.125 µg/mL (≈ 0.0528 µM) | 0.125 µg/mL (≈ 0.0528 µM) | 0.0625 µg/mL (≈ 0.0264 µM) | 0.125 µg/mL (≈ 0.0528 µM) | 0.0625 µg/mL (≈ 0.0264 µM) | 0.25 µg/mL (≈ 0.106 µM) | 0.0625 µg/mL (≈ 0.0264 µM) | <1% |  |  |  | 
CC(=O)N[C@H](C(=O)N[C@H]1CSSC[C@@H](C(=O)N[C@@H](CO)C(N)=O)NC(=O)[C@H](C(C)C)NC(=O)[C@H](CO)NC(=O)[C@H](Cc2c[nH]c3ccccc23)NC(=O)[C@@H](CO)NC(=O)[C@@H](CCN)NC(=O)[C@H](CCC(=O)N[C@@H](CCN)C(=O)N[C@H](C(=O)N[C@@H](CN)C(=O)N[C@H]2CCNC(=O)[C@H]([C@@H](C)O)NC(=O)[C@H](CCN)NC(=O)[C@H](CCN)NC(=O)[C@H](CC(C)C)NC(=O)[C@@H](CC(C)C)NC(=O)[C@H](CCN)NC2=O)[C@@H](C)O)NC(=O)[C@H](CCN)NC(=O)[C@H](Cc2ccc(O)cc2)NC1=O)C(C)C [Ex. 305] (I: Ac-VCY[Dab]E[dDab][dS]WSVCS-NH2 / II: [Dab]T[Dap][Dab][Dab][dL]L[Dab][Dab]T; disulfide I:2-I:11; amide I:5-II:N; lactam II:4-II:C) | 0.25 µg/mL (≈ 0.104 µM) | 0.25 µg/mL (≈ 0.104 µM) |  | 0.125 µg/mL (≈ 0.0521 µM) | 0.25 µg/mL (≈ 0.104 µM) |  |  |  | 3% | 0.0625 µg/mL | 0.0625 µg/mL | 0.125 µg/mL | 0.0625 µg/mL
CC(=O)N[C@H](C(=O)N[C@H](C(=O)N[C@@H](Cc1ccc(O)cc1)C(=O)N[C@H]1CSSC[C@@H](C(=O)N[C@H](C(=O)N[C@@H](CO)C(N)=O)C(C)C)NC(=O)[C@H](Cc2c[nH]c3ccccc23)NC(=O)[C@H](CCO)NC(=O)[C@@H](CCN)NC(=O)[C@H](CCC(=O)N[C@@H](CCN)C(=O)N[C@H](C(=O)N[C@@H](CCN)C(=O)N[C@H]2CCNC(=O)[C@H]([C@@H](C)O)NC(=O)[C@H](CCN)NC(=O)[C@H](CCN)NC(=O)[C@H](CC(C)C)NC(=O)[C@@H](CC(C)C)NC(=O)[C@H](CCN)NC2=O)[C@@H](C)O)NC1=O)[C@@H](C)O)C(C)C [Example 11] (I: Ac-VTYCE[dDab][hSer]WCVS-NH2 / II: [Dab]T[Dab][Dab][Dab][dL]L[Dab][Dab]T; disulfide I:4-I:9; amide I:5-II:N; lactam II:4-II:C) | 4 µg/mL (≈ 1.71 µM) | 4 µg/mL (≈ 1.71 µM) | 0.125 µg/mL (≈ 0.0534 µM) | 8 µg/mL (≈ 3.42 µM) | 2 µg/mL (≈ 0.854 µM) | 0.125 µg/mL (≈ 0.0534 µM) | 0.25 µg/mL (≈ 0.107 µM) | 0.125 µg/mL (≈ 0.0534 µM) | 1% |  |  |  | 
CC(=O)N[C@H](C(=O)N[C@H]1CSSC[C@@H](C(=O)N[C@@H](CO)C(N)=O)NC(=O)[C@H](C(C)C)NC(=O)[C@H](CO)NC(=O)[C@H](Cc2c[nH]c3ccccc23)NC(=O)[C@H](CO)NC(=O)[C@@H](CCN)NC(=O)[C@H](CCC(=O)N[C@@H](CCN)C(=O)N[C@@H](CCO)C(=O)N[C@@H](CN)C(=O)N[C@H]2CCNC(=O)[C@H]([C@@H](C)O)NC(=O)[C@H](CCN)NC(=O)[C@H](CCN)NC(=O)[C@H](CC(C)C)NC(=O)[C@@H](CC(C)C)NC(=O)[C@H](CCN)NC2=O)NC(=O)[C@H](CCN)NC(=O)[C@H](Cc2ccc(O)cc2)NC1=O)C(C)C [Ex. 308] (I: Ac-VCY[Dab]E[dDab]SWSVCS-NH2 / II: [Dab][hSer][Dap][Dab][Dab][dL]L[Dab][Dab]T; disulfide I:2-I:11; amide I:5-II:N; lactam II:4-II:C) | 1 µg/mL (≈ 0.417 µM) | 0.5 µg/mL (≈ 0.208 µM) |  | 0.5 µg/mL (≈ 0.208 µM) | 1 µg/mL (≈ 0.417 µM) |  |  |  | <1% | 0.25 µg/mL | 0.0625 µg/mL | 0.125 µg/mL | 0.125 µg/mL
CC(=O)N[C@H](C(=O)N[C@H](C(=O)N[C@@H](Cc1ccc(O)cc1)C(=O)N[C@H]1CSSC[C@@H](C(=O)N[C@H](C(=O)N[C@@H](CCN)C(=O)N[C@H](C(N)=O)C(C)C)C(C)(C)C)NC(=O)[C@H](Cc2c[nH]c3ccccc23)NC(=O)[C@H](CO)NC(=O)[C@@H](CCN)NC(=O)[C@H](CCC(=O)N[C@@H](CCN)C(=O)N[C@H](C(=O)N[C@@H](CN)C(=O)N[C@H]2CCNC(=O)[C@H]([C@@H](C)O)NC(=O)[C@H](CCN)NC(=O)[C@H](CCN)NC(=O)[C@H](CC(C)C)NC(=O)[C@@H](CC(C)C)NC(=O)[C@H](CCN)NC2=O)[C@@H](C)O)NC1=O)[C@@H](C)O)C(C)C [Ex. 206] (I: Ac-VTYCE[dDab]SWC[Tle][Dab]V-NH2 / II: [Dab]T[Dap][Dab][Dab][dL]L[Dab][Dab]T; disulfide I:4-I:9; amide I:5-II:N; lactam II:4-II:C) | 0.5 µg/mL (≈ 0.205 µM) | 0.0625 µg/mL (≈ 0.0256 µM) | 0.0625 µg/mL (≈ 0.0256 µM) | 0.0625 µg/mL (≈ 0.0256 µM) | 0.125 µg/mL (≈ 0.0513 µM) | 0.03125 µg/mL (≈ 0.0128 µM) | 0.125 µg/mL (≈ 0.0513 µM) | 0.0625 µg/mL (≈ 0.0256 µM) | 1% |  |  |  | 
